Assay results as given in patent publication US12404242B2, “Compositions and methods for making and using small molecules in the treatment of cancer” (Reglagene, Inc., priority 2021, dated 2025).
≈ marks a conversion by molar mass, not a printed value. Like-named read-outs stand apart in the source and are kept apart here.

How the values were obtained:
[1] = system: LN18 cells; assay: Cell viability (AlamarBlue), LN18 glioma cells; format: cell-based; details: Homo sapiens, LN-18, 72 hours of treatment
Method: (§1) In another exemplary method, half maximal effective concentration (EC50) was determined for some compounds and their isomers as disclosed herein in a variety of human cancer cell lines. In brief, cells from two prostate cancer cell lines (LNCaP, 22RV1), one glioblastoma cell line (U87), one breast cancer cell line (MCF7), a glioma cell line (LN18), a normal prostate cell line (RWPE1), and a glioblastoma cell line (T98G) were plated in a multi-well plate. After 24 hours, one of the compounds herein was added to the well at increasing concentrations. After 72 hours of treatment, cell viability was assessed using AlamrBlue® (Invitrogen) and fluorescence was read using the CLARIOstar Plus Multilabel Plate Reader (BMG Labtech). Samples were normalized to no treatment controls. EC50 values were determined using GraphPad Prism.

[2] = Kinetic solubility in aqueous PBS buffer (HPLC-MS); format: physicochemical; details: kinetic from dmso stock, DMSO stock mixed with aqueous PBS buffer, filtered, read-out: Kinetic Solubility
Outline: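 A concentrated DMSO stock was mixed with aqueous PBS buffer and filtered. The filtrate was quantified against an HPLC-MS calibration curve.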

[3] = system: tubulin; assay: Tubulin polymerization assay; format: biochemical; details: 5 uM (FIG. 41A, 41C) or 1 uM (FIG. 41B)
Method: FIG. 41A-41C represent exemplary experiments illustrating inhibition of tubulin polymerization. FIG. 41A illustrates effects of compounds 19, 73, 86, 93 and 94 at 5 uM concentration. FIG. 41B illustrates effects of compounds 93, 94, 95 and 96 at 1 uM concentration.
FIG. 41C illustrates effects of compounds 73, 86, 87 and 88 at 5 uM concentration in accordance with certain embodiments of the present disclosure. Colchicine and vincristine are positive controls.
FIG. 42A-42B represent exemplary experiments illustrating inhibition of tubulin polymerization. FIG. 42A illustrates effects of compound 19 at 0.3, 1, 3 and 6 uM concentrations.
FIG. 42B illustrates effects of compound 73 at […] concentration in accordance with certain embodiments of the present disclosure. Colchicine and nocodazole are positive controls.
In another exemplary method, the effect of the compounds herein on tubulin polymerization was determined. FIG. 41A illustrates effects of compounds 19, 73, 86, 93 and 94 at 5 uM concentration, FIG. 41B illustrates effects of compounds 93, 94, 95 and 96 at 1 uM concentration, or FIG. 41C illustrates effects of compounds 87 and 88 at 5 uM concentration in accordance with certain embodiments of the present disclosure. Colchicine and vincristine are positive controls.
The dose dependent effect of compounds 19 and 73 on tubulin polymerization was also determined. FIG. 42A illustrates effects of compound 19 at 0.3, 1, 3 and 6 uM concentrations, and FIG. 42B illustrates effects of compound 73 at 0.1, 0.3, 1, 3 and 5 uM concentration in accordance with certain embodiments of the present disclosure. Colchicine and nocodazole are positive controls.

[4] = system: colchicine-site of tubulin; assay: Fluorescence-based colchicine competitive binding assay; details: 50 uM (FIG. 43)
Method: FIG. 43 represent fluorescence-based colchicine competitive binding assay with compounds 19, 73 and 93 at 50 uM concentration in accordance with certain embodiments of the present disclosure. Nocodazole (NOC) is positive control.
(§2) Microtubule-targeting agents that bind at the colchicine-site of tubulin are of interest in antitumoral therapy due to their action as anti-mitotics. […] Nocodazole was used as a positive control. […] Colchicine (COL) and nocodazole (NOC) are positive controls while vincristine (VINC) is negative control.

[5] = system: colchicine binding site (tubulin) in MCF7 cell lines; assay: N,N'-ethylene-bis(iodoacetamide) (EBI) competition assay in MCF7 cells; format: cell-based; details: MCF7 cell lines (FIG. 44)
From the text: FIG. 44 represent N,N′-ethylene-bis(iodoacetamide) (EBI) competition assay with compounds 19, 73 and 93 in MCF7 cell lines showing binding of compounds in colchicine binding site in accordance with certain embodiments of the present disclosure. Colchicine (COL) and nocodazole (NOC) are positive controls while vincristine (VINC) is negative control.
as §2

[6] = system: LN18 glioblastoma cancer cells; assay: Combination with Temozolomide, Bliss synergy in LN18 cells; format: cell-based; details: Temozolomide 0 to 1000 uM, compound 0.625 to 10 uM
Method: Synergy was calculated with the Bliss independence model. Compounds were combined at concentrations of 0 to 1000 uM for Temozolomide and 0.625 to 10 uM for compounds 19 and 59.

[7] = system: U87 glioblastoma cells; assay: Combination with ionizing radiation in U87 cells; format: cell-based; details: 2 Gy ionizing radiation and 0.04-0.3 uM compound; versus ionizing radiation alone
[8] = system: tubulin; assay: Tubulin polymerization assay; format: biochemical; details: compound 19 at 0.3, 1, 3 and 6 uM; compound 73 at 0.1, 0.3, 1, 3 and 5 uM
[9] = system: 22RV1 cells; assay: Cell viability (AlamarBlue), 22RV1 prostate cancer cells; format: cell-based, human; details: Homo sapiens, 22Rv1, 72 h, 72 hours of treatment
Outline: (§3)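 Following a 72-hour incubation with escalating compound doses, applied one day after seeding, AlamarBlue fluorescence gave viability relative to untreated cells, from which half-maximal effective concentrations were calculated.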

[10] = system: U87 cells; assay: Cell viability (AlamarBlue), U87 glioblastoma cells; format: cell-based, human; details: Homo sapiens, U-87 MG, 72 h, 72 hours of treatment
Outline: as §3

[11] = system: 22Rv1 prostate cancer cells; assay: Combination with Rabusertib, Bliss synergy in 22Rv1 cells; format: cell-based; details: Rabusertib 0 to 30 uM, compound 0.625 to 5 uM
Method: Synergy was calculated with the Bliss independence model. Compounds were combined at concentrations of 0 to 30 uM for Rabusertib and 0.625 to 5 uM for compounds 73 and 76.

[12] = system: T98G cells; assay: Cell viability (AlamarBlue), T98G glioblastoma cells; format: cell-based; details: Homo sapiens, 72 hours of treatment
Method: as §1

[13] = Plasma and brain levels in healthy mouse; format: in vivo; details: oral dose
From the text: FIG. 53A-53B represent an exemplary experiment illustrating concentration of Compound 98 in plasma after oral dose (FIG. 53A); FIG. 53B represents levels of Compound 98 in plasma and brain tissue after administration to a rodent model in accordance with certain embodiments of the present disclosure.
FIG. 53A illustrates concentrations of Compound 98 in healthy mouse plasma over time. FIG. 53B and Table 9 illustrates concentrations of Compound 98 in healthy mouse plasma and brain at 0.5, 1 and 2 hrs.

[14] = brain, read-out: Healthy Brain concentration
[15] = plasma, read-out: Plasma concentration

| EC50 [1] [µM] | solubility kinetic [2] [µM] | EC50 [9] [µM] | EC50 [10] [µM] | EC50 [12] [µM] | concentration at 0.5 h [13, 14] [ng/g] | concentration at 1 h [13, 14] [ng/g] | concentration at 2 h [13, 14] [ng/g] | concentration at 0.5 h [13, 15] [ng/mL] | concentration at 1 h [13, 15] [ng/mL] | concentration at 2 h [13, 15] [ng/mL] | Structure (SMILES) | effect on tubulin polymerization [3] | colchicine competitive binding assay result [4] | EBI competition assay result [5] | Bliss Synergy value, combination with Temozolomide ([6]; LN18 cells, Bliss independence model) | effect of combination with Temozolomide on cancer cell viability [6] | cancer cell viability with ionizing radiation plus compound [7] | dose dependent effect on tubulin polymerization [8] | Bliss Synergy value, combination with Rabusertib ([11]; 22Rv1 cells, Bliss independence model) | effect of combination with Rabusertib on cancer cell viability [11] |
| --- | --- | --- | --- | --- | --- | --- | --- | --- | --- | --- | --- | --- | --- | --- | --- | --- | --- | --- | --- | --- |
| 0.83 | 5.68 (≈ 2.21 µg/mL) | – | – | – | – | – | – | – | – | – | COC1CC(C(=O)NC(=O)Nc2ccc(Oc3ccc(Cl)cn3)c(C)c2)C1 (stereo not shown) [Compound 19, N-((4-((5-chloropyridin-2-yl)oxy)-3-methylphenyl)carbamoyl)-3-methoxycyclobutane-1-carboxamide] | significantly inhibit tubulin polymerization | significantly inhibit microtubule assembly | inhibitors of EBI binding | 29.5 | synergistic decrease in cancer cell viability | reduced cancer cell viability relative to cells treated with ionizing radiation alone | significantly inhibit tubulin polymerization in a dose dependent manner | – | – |
| – | – | 0.068 | 0.12 | – | – | – | – | – | – | – | COC1CC(C(=O)NC(=O)Nc2cc(C)c(Oc3ncc(Cl)cn3)c(F)c2)C1 (stereo not shown) [Compound 73, N-((4-((5-chloropyrimidin-2-yl)oxy)-3-fluoro-5-methylphenyl)carbamoyl)-3-methoxycyclobutane carboxamide] | significantly inhibit tubulin polymerization | significantly inhibit microtubule assembly | inhibitors of EBI binding | – | – | – | significantly inhibit tubulin polymerization in a dose dependent manner | 20.7 | synergistic decrease in cancer cell viability |
| – | 8.9 (≈ 3.22 µg/mL) | – | 0.03 | – | – | – | – | – | – | – | COC1CC(C(=O)NC(=O)Nc2ccc(C)c(Oc3nccs3)c2)C1 (stereo not shown) [Compound 93, 3-methoxy-N-((4-methyl-3-(thiazol-2-yloxy)phenyl)carbamoyl)cyclobutane-1-carboxamide] | significantly inhibit tubulin polymerization | significantly inhibit microtubule assembly | inhibitors of EBI binding | – | – | – | – | – | – |
| 0.07 | – | – | 0.02 | 0.0189 | 230 | 234 | 257 | 424 | 490 | 399 | COC12CC(C(=O)NC(=O)Nc3ccc(C)c(Oc4ccccn4)c3)(C1)C2 [Compound 98, 3-methoxy-N-((4-methyl-3-(pyridin-2-yloxy)phenyl)carbamoyl)bicyclo[1.1.1]pentane-1-carboxamide] | – | – | – | – | – | – | – | – | – |
